Experimental findings from ChEMBL document CHEMBL4049438, “Discovery and Optimization of Isoquinoline Ethyl Ureas as Antibacterial Agents” (J Med Chem, 2017) are described below.

In general, IC50 refers to the concentration needed to halve the response being measured. A lower IC50 goes with inhibition by little substance. Broadly, the MIC is the least concentration at which growth counts as inhibited. Read a low MIC as a more susceptible organism. For orientation: inhibition means the relative decrease from the control value, in per cent. By logD is commonly meant lipophilicity at a set pH, counting ionised and neutral species. High values mean a more lipophilic compound, low ones a more hydrophilic compound. By pKa is commonly meant the negative logarithm of the acid dissociation constant. Low readings indicate a group that gives up its proton readily, high ones a group that holds its proton tightly.

Series [1] is described as follows: Inhibition of Staphylococcus aureus topoisomerase 4 subunit ParC/ParE relaxation expressed in Escherichia coli BL21 (DE3) using supercoiled pBR322 DNA as substrate after 1 hr by agarose gel electrophoresis.
The next series deals with Staphylococcus aureus. As to the kind of experiment: Antibacterial activity against Staphylococcus aureus ATCC 29213 by broth microdilution method. Type of series: functional.
For the next series, the target named is hERG (KCNH2) (Homo sapiens, UniProt Q12809). As to the kind of experiment: Inhibition of human ERG expressed in CHO cells at 10 uM after 3 mins at -80 mV holding potential by Qpatch assay. The conditions noted are these: CHO cells expressing human ERG. Type of series: cell-based. For orientation: In patch-clamp work, channel activity is measured electrically.

A short description of series [2]: Octanol-phosphate buffer partition coefficient, logD of compound at pH 7.4 by LC/UV analysis. Type of series: physicochemical.
Series [3] can be described thus: Dissociation constant, pKa of the compound by pH metric assay. Type of series: physicochemical.
In the next series the target is DNA gyrase (Staphylococcus aureus, UniProt P0A0K8+P20831).
For series [4], the system named is Escherichia coli. As to the kind of experiment: Inhibition of Escherichia coli N-terminal His6-tagged DNA gyrase subunit GyrA/GyrB ATPase activity at 100 to 500 uM after 40 mins by spectrophotometric analysis.
Series [5] is described as follows: Inhibition of Escherichia coli N-terminal His6-tagged DNA gyrase subunit GyrA/GyrB ATPase activity expressed in Escherichia coli BL21 (DE3) after 40 mins by spectrophotometric analysis.
Series [6] in a line: Inhibition of Escherichia coli DNA topoisomerase 4 subunit ParC/ParE relaxation expressed in Escherichia coli BL21 (DE3) using supercoiled pBR322 DNA as substrate after 1 hr by agarose gel electrophoresis.
Series [7] has as its system Escherichia coli. As to the kind of experiment: Antibacterial activity against TolC deficient Escherichia coli by broth microdilution method. It counts as functional. For orientation: Dilution methods test growth across graded concentrations, often in twofold steps.
A short description of series [8]: Inhibition of Escherichia coli N-terminal His6-tagged DNA gyrase subunit GyrA/GyrB supercoiling activity expressed in Escherichia coli BL21 (DE3) using relaxed pBR322 DNA as substrate after 1 hr by agarose gel electrophoresis.

In brackets after ≈: the same amount, converted by molar mass. Activity calls are given as the source filed them. The rule behind the calls is not given here.

Chain of DNA gyrase (P0A0K8 whole entry): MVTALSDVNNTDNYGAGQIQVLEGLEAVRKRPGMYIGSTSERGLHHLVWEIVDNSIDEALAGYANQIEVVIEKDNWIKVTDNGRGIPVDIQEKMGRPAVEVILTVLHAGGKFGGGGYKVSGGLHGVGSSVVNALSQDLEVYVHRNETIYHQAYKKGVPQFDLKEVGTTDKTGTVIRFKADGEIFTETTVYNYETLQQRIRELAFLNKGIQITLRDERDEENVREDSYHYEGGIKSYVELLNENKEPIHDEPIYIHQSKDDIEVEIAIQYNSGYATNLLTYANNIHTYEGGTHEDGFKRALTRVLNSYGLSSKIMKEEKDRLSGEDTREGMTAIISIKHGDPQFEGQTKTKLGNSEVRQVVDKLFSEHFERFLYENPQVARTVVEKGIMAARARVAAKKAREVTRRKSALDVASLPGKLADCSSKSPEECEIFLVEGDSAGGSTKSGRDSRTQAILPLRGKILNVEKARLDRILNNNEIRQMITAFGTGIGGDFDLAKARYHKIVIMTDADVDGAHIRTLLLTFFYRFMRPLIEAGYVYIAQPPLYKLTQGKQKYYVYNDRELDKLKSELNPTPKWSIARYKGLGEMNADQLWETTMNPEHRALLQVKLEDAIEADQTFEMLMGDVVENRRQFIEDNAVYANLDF
Chain of DNA gyrase (P20831 whole entry): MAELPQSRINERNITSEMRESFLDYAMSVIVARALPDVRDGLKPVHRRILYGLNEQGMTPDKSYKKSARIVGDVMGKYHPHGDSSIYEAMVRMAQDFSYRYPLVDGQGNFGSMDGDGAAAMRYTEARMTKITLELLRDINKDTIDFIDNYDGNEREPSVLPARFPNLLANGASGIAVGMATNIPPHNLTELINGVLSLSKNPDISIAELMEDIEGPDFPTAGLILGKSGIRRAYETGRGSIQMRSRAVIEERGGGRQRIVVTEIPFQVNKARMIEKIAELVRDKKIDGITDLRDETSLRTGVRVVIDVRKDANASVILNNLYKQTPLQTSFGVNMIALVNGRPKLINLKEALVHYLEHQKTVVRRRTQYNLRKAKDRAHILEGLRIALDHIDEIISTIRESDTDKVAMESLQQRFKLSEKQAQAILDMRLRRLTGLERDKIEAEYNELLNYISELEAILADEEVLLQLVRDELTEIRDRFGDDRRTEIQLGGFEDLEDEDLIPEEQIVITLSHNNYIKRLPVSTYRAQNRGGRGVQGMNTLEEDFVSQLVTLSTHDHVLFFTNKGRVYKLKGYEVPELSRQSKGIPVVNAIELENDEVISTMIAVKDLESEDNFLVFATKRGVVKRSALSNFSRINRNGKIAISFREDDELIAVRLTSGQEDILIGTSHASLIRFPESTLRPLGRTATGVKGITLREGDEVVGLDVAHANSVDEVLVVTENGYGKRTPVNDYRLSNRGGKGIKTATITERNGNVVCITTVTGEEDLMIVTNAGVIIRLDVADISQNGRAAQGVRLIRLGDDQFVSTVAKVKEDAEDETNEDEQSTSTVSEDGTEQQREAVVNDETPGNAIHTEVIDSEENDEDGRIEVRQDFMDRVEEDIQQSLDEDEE
Chain of hERG (KCNH2) (Q12809 whole entry): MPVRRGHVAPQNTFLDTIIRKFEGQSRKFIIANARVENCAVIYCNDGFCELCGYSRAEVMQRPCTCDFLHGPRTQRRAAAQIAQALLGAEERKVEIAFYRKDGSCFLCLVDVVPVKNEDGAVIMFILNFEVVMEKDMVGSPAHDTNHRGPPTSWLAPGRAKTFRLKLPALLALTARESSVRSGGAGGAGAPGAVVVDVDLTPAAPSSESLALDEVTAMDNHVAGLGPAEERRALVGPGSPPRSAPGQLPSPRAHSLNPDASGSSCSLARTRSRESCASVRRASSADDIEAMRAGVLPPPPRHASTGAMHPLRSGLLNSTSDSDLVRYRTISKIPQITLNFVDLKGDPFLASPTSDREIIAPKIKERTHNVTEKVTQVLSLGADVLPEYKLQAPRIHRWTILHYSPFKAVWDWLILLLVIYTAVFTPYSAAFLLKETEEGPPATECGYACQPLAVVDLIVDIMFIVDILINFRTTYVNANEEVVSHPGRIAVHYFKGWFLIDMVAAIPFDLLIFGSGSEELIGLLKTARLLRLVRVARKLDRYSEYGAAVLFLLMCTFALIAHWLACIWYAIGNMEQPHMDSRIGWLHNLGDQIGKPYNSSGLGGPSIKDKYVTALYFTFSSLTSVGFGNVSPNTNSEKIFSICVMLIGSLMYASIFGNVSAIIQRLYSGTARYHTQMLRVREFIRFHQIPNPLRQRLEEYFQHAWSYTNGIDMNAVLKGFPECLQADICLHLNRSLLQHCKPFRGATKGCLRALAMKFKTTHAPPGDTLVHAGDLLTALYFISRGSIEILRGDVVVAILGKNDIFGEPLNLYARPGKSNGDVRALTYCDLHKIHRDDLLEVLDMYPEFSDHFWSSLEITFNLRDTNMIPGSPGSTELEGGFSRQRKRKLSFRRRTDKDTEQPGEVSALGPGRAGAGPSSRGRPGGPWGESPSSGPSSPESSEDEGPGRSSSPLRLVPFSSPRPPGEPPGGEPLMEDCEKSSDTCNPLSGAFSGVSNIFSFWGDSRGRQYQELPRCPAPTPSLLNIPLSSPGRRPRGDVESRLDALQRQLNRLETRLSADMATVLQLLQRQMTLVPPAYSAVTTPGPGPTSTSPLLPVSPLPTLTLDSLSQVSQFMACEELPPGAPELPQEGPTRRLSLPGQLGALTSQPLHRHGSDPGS
Description for DNA gyrase: Inhibition of Staphylococcus aureus N-terminal His6-tagged DNA gyrase subunit GyrA/GyrB supercoiling activity expressed in Escherichia coli BL21 (DE3) using relaxed pBR322 DNA as substrate after 1 hr by agarose gel electrophoresis

For the compound `CCNC(=O)Nc1cc2c(-c3ccncc3)ccc(CNC(=O)OCCNCC(C)(C)C)c2cn1`, the IC50 in series [1] stood at 8000 nM; against DNA gyrase it was 8 nM. In addition, in the series on Staphylococcus aureus, the MIC turned out to be 4 µg/mL (≈ 8.36 µM). This compound yielded an inhibition at 0.05 h, 10 µM against hERG (KCNH2) of 25%. This compound had a logD in [2] of 2.6. For the same compound, the pKa in [3] came out at 8.7.

Regarding `CCNC(=O)Nc1cc2c(-c3ccnc(C)c3)ccc(CNC(=O)C3CC3)c2cn1`, the IC50 is 2000 nM in series [1] and below 4 nM against DNA gyrase. In addition, the MIC in the series with Staphylococcus aureus worked out at 0.06 µg/mL (≈ 0.149 µM). Moreover, at hERG (KCNH2), the inhibition at 0.05 h, 10 µM was determined as 75%. The log distribution coefficient (logD) in series [2] came out at 3.4.

As to `CCNC(=O)Nc1cc2ccccc2cn1`, the inhibition entry in the series with Escherichia coli [4] was “Active”. Also, the IC50 in series [5] is 20 µM; in [6], above 256 µM; in [1] it was above 256000 nM; against DNA gyrase, 128000 nM. Moreover, the MIC in the series with Escherichia coli [7] and against Staphylococcus aureus was above 32 µg/mL throughout.

In the case of `CCNC(=O)Nc1cc2c(-c3ccnc(C)c3)ccc(Nc3cccc(C(=O)O)c3)c2cn1`, the IC50 in series [6] amounted to 0.5 µM; in [1], 125 nM; against DNA gyrase, 8 nM. The same compound registered a minimum inhibitory concentration (MIC) in the series with Staphylococcus aureus of 0.5 µg/mL (≈ 1.13 µM).

On to `CCNC(=O)Nc1nc2ccncc2s1`, for which the inhibition result in the series on Escherichia coli [4] is “Active”. This compound also returned an IC50 in series [5] of 20 µM.

For the compound `CCNC(=O)Nc1nc2c(s1)CNCC2`, the inhibition result in the series on Escherichia coli [4] is “Active”. 200 µM corresponded to half-maximal inhibition in series [5] (IC50).

`CCNC(=O)Nc1ccccn1`: in the series on Escherichia coli [4], the inhibition entry is “Active”. This compound also had an IC50 in series [5] above 200 µM.

For the compound `CCNC(=O)Nc1nc2c(s1)NC(=O)CC2`, the inhibition entry in the series on Escherichia coli [4] is “Active”. The IC50 in [5] came out at 20 µM.

Take `CCNC(=O)Nc1cc2c(-c3ccncc3)ccc(Oc3cccnc3)c2cn1`: the IC50 in series [8] was 125 nM; in series [6], 8 µM; in series [1] it was 2000 nM; at DNA gyrase it was 30 nM. The same compound displayed an MIC against Staphylococcus aureus of 0.25 µg/mL (≈ 0.649 µM).

In the case of `CCNC(=O)Nc1ccc2ccccc2n1`, in the series with Escherichia coli [4], the inhibition entry is “Active”. For the same compound, the IC50 in [5] is 70 µM.

Regarding `CCNC(=O)Nc1cc2c(-c3ccncn3)ccc(C)c2cn1`, the IC50 was below 0.2 µM in series [5], 32 µM in series [6], 32000 nM in series [1] and 500 nM against DNA gyrase. Also, the MIC with Escherichia coli [7] and in the series with Staphylococcus aureus was 4 µg/mL (≈ 13 µM) throughout.

For `CCNC(=O)Nc1nc2ccccc2s1`, the inhibition entry with Escherichia coli [4] was “Active”. The compound also showed an IC50 in [5] of 20 µM.

For the compound `CCNC(=O)Nc1cc2c(-c3cncnc3)ccc(C)c2cn1`, the IC50 was below 0.2 µM in [5]; 2000 nM in series [8]; above 256 µM in [6]; above 256000 nM in [1]; 500 nM against DNA gyrase. The MIC in the series on Escherichia coli [7] and in the series on Staphylococcus aureus was above 32 µg/mL each time.

With `CCNC(=O)Nc1cnc2ccccc2n1`, in the series with Escherichia coli [4], the inhibition entry is “Active”. The same compound displayed an IC50 in series [5] of 20 µM.

Consider `CCNC(=O)Nc1cc2c(-c3ccnc(C)c3)ccc(C)c2cn1`, for which the IC50 in [5] is below 0.2 µM; in series [8] it was 125 nM; in [6], 8 µM; in [1] it was 8000 nM; against DNA gyrase it was 30 nM. Also, the results for the MIC in the series with Escherichia coli [7] and in the series with Staphylococcus aureus were 4 µg/mL (≈ 12.5 µM) and 0.5 µg/mL (≈ 1.56 µM), respectively.

On to `CCNC(=O)Nc1cc2c(-c3ccncc3)ccc(CNC(=O)OC)c2cn1`, for which the figures for the IC50 (in series [1]; at DNA gyrase) were 500 nM and below 4 nM, respectively. The compound further registered an MIC against Staphylococcus aureus of 0.125 µg/mL (≈ 0.329 µM). The same compound gave an inhibition at 0.05 h, 10 µM on hERG (KCNH2) of 41%. The compound also came in with a logD in series [2] of 2.7.

On to `CCNC(=O)Nc1ncc2ccccc2n1`, for which the inhibition result with Escherichia coli [4] was “Active”. Besides, the IC50 in series [5] is above 200 µM.

On to `CCNC(=O)Nc1cc2c(-c3ccnc(C)c3)ccc(CNC(=O)CCOC)c2cn1`, for which the IC50 in series [1] turned out to be 2000 nM; against DNA gyrase it was 8 nM. Besides, the minimal inhibitory concentration (MIC) in the series on Staphylococcus aureus stood at 0.5 µg/mL (≈ 1.19 µM). For the same compound, the inhibition at 0.05 h, 10 µM on hERG (KCNH2) worked out at 0%. The logD in [2] worked out at 2.6.

As to `CCNC(=O)Nc1cc2c(-c3ccncc3)ccc(-c3cccnc3)c2cn1`, the IC50 is 2000 nM in series [8], above 256 µM in series [6], above 256000 nM in [1] and 125 nM against DNA gyrase. This compound displayed an MIC against Staphylococcus aureus above 16 µg/mL.

As for `CCNC(=O)Nc1cc2c(-c3ccc(C#N)cc3)ccc(C)c2cn1`, the IC50 in series [5] was below 0.2 µM; in series [8], 125 nM; in [6], above 256 µM; in series [1], above 256000 nM; at DNA gyrase it was 30 nM. Besides, the MIC against Escherichia coli [7] and against Staphylococcus aureus was above 32 µg/mL in each case.

As for `CCNC(=O)Nc1cc2c(-c3ccnc(C)c3)ccc(Cc3cccnc3)c2cn1.Cl`, the IC50 amounted to 125 nM in series [8], 8 µM in series [6], 2000 nM in [1] and 30 nM on DNA gyrase. It took 0.5 µg/mL to inhibit growth against Staphylococcus aureus (MIC).

For `CCNC(=O)Nc1cc2c(-c3ccnc(C)c3)ccc(CNC(=O)OCCO)c2cn1`, the IC50 in series [1] amounted to 8000 nM; against DNA gyrase, 30 nM. The compound further gave an MIC with Staphylococcus aureus of 1 µg/mL (≈ 2.36 µM). Besides, the inhibition at 0.05 h, 10 µM on hERG (KCNH2) was 19%. Also, in series [2], the pH-dependent lipophilicity (logD) was determined as 2.5.

Consider `CCNC(=O)Nc1nccs1`, for which the inhibition result in the series with Escherichia coli [4] is “Active”. Moreover, the IC50 in series [5] is above 200 µM.

As to `CCNC(=O)Nc1cc2c(-c3cccnc3)ccc(C)c2cn1`, the IC50 was below 0.2 µM in [5]; 2000 nM in series [8]; above 256 µM in [6]; above 256000 nM in series [1]; 125 nM against DNA gyrase. The figures for the MIC in the series on Escherichia coli [7] and with Staphylococcus aureus were above 32 µg/mL and 2 µg/mL (≈ 6.53 µM), respectively.

Turning to `CCNC(=O)Nc1cc2c(-c3cnn(C)c3)ccc(C)c2cn1.Cl`, the IC50 in series [5] was below 0.2 µM; in [8] it was 8000 nM; in series [6], 32 µM; in series [1] it was above 256000 nM; against DNA gyrase, 125 nM. In addition, the results for the minimal inhibitory concentration (MIC) in the series on Escherichia coli [7] and in the series with Staphylococcus aureus were 16 µg/mL and 4 µg/mL, respectively.

For `CCNC(=O)Nc1cc2c(-c3ccncc3)ccc(Nc3cccnc3)c2cn1`, the 50% inhibitory concentration (IC50) came out at 30 nM in series [8], 0.5 µM in [6], 125 nM in [1] and 8 nM at DNA gyrase. In the series on Staphylococcus aureus, this compound yielded an MIC of 0.06 µg/mL (≈ 0.156 µM).

On to `CCNC(=O)Nc1nccc2ccccc12`, for which the inhibition entry in the series with Escherichia coli [4] is “Active”. Moreover, in series [5], the IC50 is above 200 µM.

Turning to `CCNC(=O)Nc1nc2c(s1)CCCC2`, the inhibition entry with Escherichia coli [4] was “Active”. Moreover, the IC50 in [5] is 200 µM.

Regarding `CCNC(=O)Nc1cc2c(-c3cccnc3)cccc2cn1`, the IC50 in [5] was 1 µM; in [8], 32000 nM; in series [6], 128 µM; in series [1], above 256000 nM; against DNA gyrase, 8000 nM. The MIC in the series with Escherichia coli [7] and in the series on Staphylococcus aureus was above 32 µg/mL in each case.

Regarding `CCNC(=O)Nc1cc2cccc(C)c2cn1`, the half-inhibitory concentration (IC50) in series [5] was 1 µM; in series [8] it was 32000 nM; in series [6] it was 128 µM; in series [1] it was above 256000 nM; at DNA gyrase, 8000 nM. Also, the MIC is above 32 µg/mL in the series with Escherichia coli [7] and 32 µg/mL (≈ 140 µM) against Staphylococcus aureus.

For `CCNC(=O)Nc1cc2c(-c3ccncc3)ccc(CNC(=O)OC(C)C)c2cn1`, the figures for the IC50 (in series [1]; against DNA gyrase) were 500 nM and below 4 nM, respectively. It took 0.25 µg/mL (≈ 0.614 µM) to inhibit growth against Staphylococcus aureus (MIC). The compound also registered an inhibition at 0.05 h, 10 µM at hERG (KCNH2) of 63%. Also, in [2], the logD worked out at 3.7.

For the compound `CCNC(=O)Nc1cc2c(-c3ccncc3)ccc(CNC(=O)OCCO)c2cn1`, the IC50 in series [1] is 500 nM; at DNA gyrase, below 4 nM. Moreover, in the series with Staphylococcus aureus, it took 2 µg/mL (≈ 4.88 µM) to inhibit growth (MIC). The inhibition at 0.05 h, 10 µM on hERG (KCNH2) was 0%. This compound came in with a logD in [2] of 2.
